Assay results as given in publication PMC9272937, “Anti-breast cancer sinomenine derivatives via mechanisms of apoptosis induction and metastasis reduction” (Journal of Enzyme Inhibition and Medicinal Chemistry, 2022).
Like-named read-outs stand apart in the source and are kept apart here. One block for each molecule: values may come before it.

Key:
[1] = Griess assay, NO-releasing capacity; conditions: 10^−4 mol/l compound, L-cysteine, 37 °C; for NO peak releasing: 15-180 min
Method: The NO-releasing capacity of each target compound was determined by the colorimetric method under the instructions of the manufacturer. Preparation of standard curves of 0, 1.56, 3.13, 6.25, 12.5, 25, 50 and 100 μmol/L nitrite nitrogen series standard solution was prepared. 50 μL to 96-well plate was added respectively and then mixed with 50 μL Griess I and Griess II; the absorption value was measured at 540 nm wavelength. A standard curve was drawn from the obtained data. Compounds were formulated into 10^−4 mol/l with PBS (pH = 7.4) and pharmaceutical DMSO. The newly formulated L-cysteine solution 100 μL ([…]) was added and incubated at 37 °C for 15, 30, 45, 60, 90, 120, 150 and180 min, respectively. Griess I and II recovered to room temperature, 50 μL of compounds 7A–E(a–c) were added respectively into the 96-well plate, and then 50 μL of Griess I and 50 μL of Griess II were added in sequence, with the absorbance tested at 540 nm. The amount of NO released was then calculated according to the standard curve.

[2] = test system: human lung cancer cell line A549; assay: CCK-8 antiproliferative assay, A549; format: cell-based; conditions: CCK-8, 48 h, mean ± SD of three experiments
Method: (§1) The antiproliferative activities of target compounds were examined by CCK-8 assay in three cancer cells (human lung cancer cell line A549, human mammary gland tumour cell line MCF-7 and human TNBC cell line MDA-MB-231) and one normal cell (human normal breast cell line MCF10A). All cell lines were sourced from KeyGEN Biotech, […], China, and a standard DMEM medium was applied to all cell cultures then subjected to 24 h incubation at 37 °C in a humidified environment with 5% CO2. After that logarithmic growing cells were plated on 96-well plates with 8,000 cells per well in a […] medium for 24 h incubation at 37 °C with 5% CO2. The DMEM medium with bovine serum was removed from each well. Then, prerequisite target compounds and positive controls were added to different cell lines in a predetermined concentration regiment for 48 h culture.

[3] = test system: human mammary gland tumour cell line MCF-7; assay: CCK-8 antiproliferative assay, MCF-7; format: cell-based; conditions: for IC50: Homo sapiens, read-out: IC50 MCF-7; for SI MCF-7 (selectivity index): SI = IC50(MCF-10A)/IC50(MCF-7)
Method: as §1

[4] = test system: human TNBC cell line MDA-MB-231; assay: CCK-8 antiproliferative assay, MDA-MB-231; format: cell-based; conditions: for IC50: Homo sapiens, read-out: IC50 MDA-MB-231; for SI MDA-MB-231 (selectivity index): SI = IC50(MCF-10A)/IC50(MDA-MB-231)
Method: as §1

[5] = test system: human normal breast cell line MCF10A; assay: CCK-8 assay, normal cells MCF10A; format: cell-based; conditions: MCF-10A, CCK-8, 48 h, mean ± SD of three experiments
Method: as §1

Structure (SMILES): COC1=CC2[C@H]3Cc4ccc(OC)c(OC(=O)CCC(=O)OCCOc5no[n+]([O-])c5S(=O)(=O)c5ccccc5)c4[C@@]2(CCN3C)CC1=O (stereo partly drawn) [7Aa, 4–(2-((4-(((4bs,9R)-3,7-Dimethoxy-11-methyl-6-oxo-6,8a,9,10-tetrahydro-5H-9,4b-(epiminoethano)phenanthren-4-yl)oxy)-4-oxobutanoyl)oxy)ethoxy)-3-(phenylsulfonyl)-1,2,5-oxadiazole 2-oxide]
- NO peak releasing [1]: exceeding 40 μmol/L
- IC50 ([2]; Homo sapiens, A549): 15.2 ± 1.37 µM
- IC50 ([3]; MCF7, 48 h): 26.4 ± 1.25 µM
- SI MCF-7 (selectivity index) [3]: >1.89
- IC50 ([4]; MDA-MB-231, 48 h): 31.5 ± 2.77 µM
- SI MDA-MB-231 (selectivity index) [4]: >1.58
- IC50 [5]: > 50 µM

Structure (SMILES): COC1=CC2[C@H]3Cc4ccc(OC)c(OC(=O)CCCC(=O)OCCOc5no[n+]([O-])c5S(=O)(=O)c5ccccc5)c4[C@@]2(CCN3C)CC1=O (stereo partly drawn) [7Ab, 4–(2-((5-(((4bs,9R)-3,7-Dimethoxy-11-methyl-6-oxo-6,8a,9,10-tetrahydro-5H-9,4b-(epiminoethano)phenanthren-4-yl)oxy)-5-oxopentanoyl)oxy)ethoxy)-3-(phenylsulfonyl)-1,2,5-oxadiazole 2-oxide]
- IC50 ([2]; Homo sapiens, A549): 9.41 ± 0.68 µM
- IC50 ([3]; MCF7, 48 h): 15.3 ± 0.94 µM
- SI MCF-7 (selectivity index) [3]: >3.27
- IC50 ([4]; MDA-MB-231, 48 h): 29.6 ± 1.8 µM
- SI MDA-MB-231 (selectivity index) [4]: >1.69
- IC50 [5]: > 50 µM

Structure (SMILES): COC1=CC2[C@H]3Cc4ccc(OC)c(OC(=O)c5ccccc5C(=O)OCCOc5no[n+]([O-])c5S(=O)(=O)c5ccccc5)c4[C@@]2(CCN3C)CC1=O (stereo partly drawn) [7Ac, 4–(2-((2-((((4bs,9R)-3,7-Dimethoxy-11-methyl-6-oxo-6,8a,9,10-tetrahydro-5H-9,4b-(epiminoethano)phenanthren-4-yl)oxy)carbonyl)benzoyl)oxy)ethoxy)-3-(phenylsulfonyl)-1,2,5-oxadiazole 2-oxide]
- NO peak releasing [1]: exceeding 40 μmol/L
- IC50 ([2]; Homo sapiens, A549): 2.33 ± 0.15 µM
- IC50 ([3]; MCF7, 48 h): 5.87 ± 0.42 µM
- SI MCF-7 (selectivity index) [3]: 3.67
- IC50 ([4]; MDA-MB-231, 48 h): 1.62 ± 0.15 µM
- SI MDA-MB-231 (selectivity index) [4]: 13.30
- IC50 [5]: 21.5 ± 0.88 µM

Structure (SMILES): COC1=CC2C3Cc4ccc(OC)c(OC(=O)CCC(=O)OCCCOc5no[n+]([O-])c5S(=O)(=O)c5ccccc5)c4C2(CCN3C)CC1=O (stereo not shown) [7Ba]
- NO release at 180 min ([1]; 180 min): 68.4 µmol/L
- IC50 ([2]; Homo sapiens, A549): 9.84 ± 0.47 µM
- IC50 ([3]; MCF7, 48 h): 19 ± 1.33 µM
- SI MCF-7 (selectivity index) [3]: >2.64
- IC50 ([4]; MDA-MB-231, 48 h): 24.2 ± 1.97 µM
- SI MDA-MB-231 (selectivity index) [4]: >2.06
- IC50 [5]: > 50 µM

Structure (SMILES): COC1=CC2[C@H]3Cc4ccc(OC)c(OC(=O)CCCC(=O)OCCCOc5no[n+]([O-])c5S(=O)(=O)c5ccccc5)c4[C@@]2(CCN3C)CC1=O (stereo partly drawn) [7Bb, 4–(3-((5-(((4bs,9R)-3,7-Dimethoxy-11-methyl-6-oxo-6,8a,9,10-tetrahydro-5H-9,4b-(epiminoethano)phenanthren-4-yl)oxy)-5-oxopentanoyl)oxy)propoxy)-3-(phenylsulfonyl)-1,2,5-oxadiazole 2-oxide]
- IC50 ([2]; Homo sapiens, A549): 4.91 ± 0.3 µM
- IC50 ([3]; MCF7, 48 h): 19.7 ± 1.28 µM
- SI MCF-7 (selectivity index) [3]: >2.54
- IC50 ([4]; MDA-MB-231, 48 h): 16.4 ± 1.55 µM
- SI MDA-MB-231 (selectivity index) [4]: >3.04
- IC50 [5]: > 50 µM

Structure (SMILES): COC1=CC2[C@H]3Cc4ccc(OC)c(OC(=O)c5ccccc5C(=O)OCCCOc5no[n+]([O-])c5S(=O)(=O)c5ccccc5)c4[C@@]2(CCN3C)CC1=O (stereo partly drawn) [7Bc, 4–(3-((2-((((4bs,9R)-3,7-Dimethoxy-11-methyl-6-oxo-6,8a,9,10-tetrahydro-5H-9,4b-(epiminoethano)phenanthren-4-yl)oxy)carbonyl)benzoyl)oxy)propoxy)-3-(phenylsulfonyl)-1,2,5-oxadiazole 2-oxide]
- IC50 ([2]; Homo sapiens, A549): 5.05 ± 0.21 µM
- IC50 ([3]; MCF7, 48 h): 12.2 ± 0.92 µM
- SI MCF-7 (selectivity index) [3]: >4.11
- IC50 ([4]; MDA-MB-231, 48 h): 18.7 ± 0.61 µM
- SI MDA-MB-231 (selectivity index) [4]: >2.67
- IC50 [5]: > 50 µM

Structure (SMILES): COC1=CC2[C@H]3Cc4ccc(OC)c(OC(=O)CCC(=O)OCCCCOc5no[n+]([O-])c5S(=O)(=O)c5ccccc5)c4[C@@]2(CCN3C)CC1=O (stereo partly drawn) [7Ca, 4–(4-((4-(((4bs,9R)-3,7-Dimethoxy-11-methyl-6-oxo-6,8a,9,10-tetrahydro-5H-9,4b-(epiminoethano)phenanthren-4-yl)oxy)-4-oxobutanoyl)oxy)butoxy)-3-(phenylsulfonyl)-1,2,5-oxadiazole 2-oxide]
- NO peak releasing [1]: exceeding 40 μmol/L
- IC50 ([2]; Homo sapiens, A549): 2.97 ± 0.14 µM
- IC50 ([3]; MCF7, 48 h): 2.55 ± 0.14 µM
- SI MCF-7 (selectivity index) [3]: 15.95
- IC50 ([4]; MDA-MB-231, 48 h): 2.26 ± 0.19 µM
- SI MDA-MB-231 (selectivity index) [4]: 18
- IC50 [5]: 40.7 ± 2.79 µM

Structure (SMILES): COC1=CC2[C@H]3Cc4ccc(OC)c(OC(=O)CCCC(=O)OCCCCOc5no[n+]([O-])c5S(=O)(=O)c5ccccc5)c4[C@@]2(CCN3C)CC1=O (stereo partly drawn) [7Cb, 4–(4-((5-(((4bs,9R)-3,7-Dimethoxy-11-methyl-6-oxo-6,8a,9,10-tetrahydro-5H-9,4b-(epiminoethano)phenanthren-4-yl)oxy)-5-oxopentanoyl)oxy)butoxy)-3-(phenylsulfonyl)-1,2,5-oxadiazole 2-oxide]
- IC50 ([2]; Homo sapiens, A549): 3.53 ± 0.29 µM
- IC50 ([3]; MCF7, 48 h): 4.68 ± 0.39 µM
- SI MCF-7 (selectivity index) [3]: 7.84
- IC50 ([4]; MDA-MB-231, 48 h): 1.47 ± 0.14 µM
- SI MDA-MB-231 (selectivity index) [4]: 24.97
- IC50 [5]: 36.7 ± 1.02 µM

Structure (SMILES): COC1=CC2[C@H]3Cc4ccc(OC)c(OC(=O)CCCC(=O)OCCCCCOc5no[n+]([O-])c5S(=O)(=O)c5ccccc5)c4[C@@]2(CCN3C)CC1=O (stereo partly drawn) [7Db, 4-((5-((5-(((4bs,9R)-3,7-Dimethoxy-11-methyl-6-oxo-6,8a,9,10-tetrahydro-5H-9,4b-(epiminoethano)phenanthren-4-yl)oxy)-5-oxopentanoyl)oxy)pentyl)oxy)-3-(phenylsulfonyl)-1,2,5-oxadiazole 2-oxide]
- IC50 ([2]; Homo sapiens, A549): 3.92 ± 0.31 µM
- IC50 ([3]; MCF7, 48 h): 2.94 ± 0.27 µM
- SI MCF-7 (selectivity index) [3]: 13.43
- IC50 ([4]; MDA-MB-231, 48 h): 3.11 ± 0.22 µM
- SI MDA-MB-231 (selectivity index) [4]: 12.69
- IC50 [5]: 39.5 ± 2.9 µM

Structure (SMILES): COC1=CC2[C@H]3Cc4ccc(OC)c(OC(=O)CCC(=O)OCCCCCCOc5no[n+]([O-])c5S(=O)(=O)c5ccccc5)c4[C@@]2(CCN3C)CC1=O (stereo partly drawn) [7Ea, 4-((6-((4-(((4bs,9R)-3,7-Dimethoxy-11-methyl-6-oxo-6,8a,9,10-tetrahydro-5H-9,4b-(epiminoethano)phenanthren-4-yl)oxy)-4-oxobutanoyl)oxy)hexyl)oxy)-3-(phenylsulfonyl)-1,2,5-oxadiazole 2-oxide]
- IC50 ([2]; Homo sapiens, A549): 4.62 ± 0.16 µM
- IC50 ([3]; MCF7, 48 h): 25.3 ± 0.9 µM
- SI MCF-7 (selectivity index) [3]: 2.79
- IC50 ([4]; MDA-MB-231, 48 h): 19 ± 0.7 µM
- SI MDA-MB-231 (selectivity index) [4]: 2.30
- IC50 [5]: 43.6 ± 2.65 µM

Structure (SMILES): COC1=CC2[C@H]3Cc4ccc(OC)c(OC(=O)CCCC(=O)OCCCCCCOc5no[n+]([O-])c5S(=O)(=O)c5ccccc5)c4[C@@]2(CCN3C)CC1=O (stereo partly drawn) [7Eb, 4-((6-((5-(((4bs,9R)-3,7-Dimethoxy-11-methyl-6-oxo-6,8a,9,10-tetrahydro-5H-9,4b-(epiminoethano)phenanthren-4-yl)oxy)-5-oxopentanoyl)oxy)hexyl)oxy)-3-(phenylsulfonyl)-1,2,5-oxadiazole 2-oxide]
- IC50 ([2]; Homo sapiens, A549): 4.55 ± 0.43 µM
- IC50 ([3]; MCF7, 48 h): 17.9 ± 1.26 µM
- SI MCF-7 (selectivity index) [3]: >2.79
- IC50 ([4]; MDA-MB-231, 48 h): 41.5 ± 1.48 µM
- SI MDA-MB-231 (selectivity index) [4]: >1.21
- IC50 [5]: > 50 µM

Structure (SMILES): COC1=CC2[C@H]3Cc4ccc(OC)c(OC(=O)c5ccccc5C(=O)OCCCCCCOc5no[n+]([O-])c5S(=O)(=O)c5ccccc5)c4[C@@]2(CCN3C)CC1=O (stereo partly drawn) [7Ec, 4-((6-((2-((((4bs,9R)-3,7-Dimethoxy-11-methyl-6-oxo-6,8a,9,10-tetrahydro-5H-9,4b-(epiminoethano)phenanthren-4-yl)oxy)carbonyl)benzoyl)oxy)hexyl)oxy)-3-(phenylsulfonyl)-1,2,5-oxadiazole 2-oxide]
- IC50 ([2]; Homo sapiens, A549): 4.81 ± 0.18 µM
- IC50 ([3]; MCF7, 48 h): 3.94 ± 0.28 µM
- SI MCF-7 (selectivity index) [3]: 12.26
- IC50 ([4]; MDA-MB-231, 48 h): 1.81 ± 0.13 µM
- SI MDA-MB-231 (selectivity index) [4]: 26.70
- IC50 [5]: 48.3 ± 3.78 µM

- IC50 ([3]; MCF7, CCK-8, 48 h, mean ± SD of three experiments): 5.12 ± 0.31 µM
- IC50 ([4]; MDA-MB-231, CCK-8, 48 h, mean ± SD of three experiments): 4.92 ± 0.44 µM
Structure (SMILES): COc1cccc2c1C(=O)c1c(O)c3c(c(O)c1C2=O)C[C@@](O)(C(=O)CO)C[C@@H]3O[C@H]1C[C@H](N)[C@H](O)[C@H](C)O1 [Adriamycin, adriamycin, reference compound]

Structure (SMILES): N.N.[Cl][Pt][Cl] [Cisplatin, cisplatin, reference compound]
- IC50 [2]: 4.97 ± 0.37 µM
